We go through 11 molecules from PubChem BioAssay (NCI).

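Where inhibition never reached the appropriate level, the endpoint shown equals the highest concentration tested. Otherwise, values were interpolated linearly from a five-concentration, 48-hour dose response in 96-well plates. TGI is the concentration that stops growth completely.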

Among the test systems are RPMI-8226 leukemia; HS 578T breast; SF-539 CNS; HCC-2998 colon; SR leukemia; HT29 colon; MOLT-4 leukemia; EKVX NSCLC; OVCAR-8 ovarian; CAKI-1 renal; SF-268 CNS; SW-620 colon; NCI/ADR-RES ovarian; HL-60(TB) leukemia; MDA-MB-435; COLO 205 colon; TK-10 renal; U251 CNS; LOX IMVI melanoma; K-562 leukemia.
Holding throughout (experiment): NCI anticancer screen, dose series, 48 h

With `COc1ccccc1CCN1CCN(CCCc2ccccc2)CC1`, the TGI in the test with RPMI-8226 leukemia, in the test on HS 578T breast, with SF-539 CNS, in the test on HCC-2998 colon, in the test on SR leukemia and in the test with HT29 colon was greater than 100 µM throughout. The TGI in the test on MOLT-4 leukemia, with EKVX NSCLC, in the test on OVCAR-8 ovarian, with CAKI-1 renal, in the test with SF-268 CNS and with SW-620 colon was greater than 100 µM in each case. Also, the TGI with NCI/ADR-RES ovarian was greater than 100 µM; in the test on HL-60(TB) leukemia it was greater than 100 µM; in the test with MDA-MB-435 it was greater than 100 µM; in the test with COLO 205 colon, 76 µM; with TK-10 renal it was greater than 100 µM; with U251 CNS, greater than 100 µM. In addition, the TGI with LOX IMVI melanoma and with K-562 leukemia was greater than 100 µM in each case.

Turning to `Cn1c2ccc([N+](=O)[O-])cc2c(=O)n1Cc1ccccc1F`, the TGI with RPMI-8226 leukemia was greater than 100 µM; in the test on HS 578T breast, 82.8 µM; in the test with SF-539 CNS, 79.6 µM; in the test on HCC-2998 colon it was greater than 100 µM; in the test on SR leukemia it was greater than 100 µM; in the test on HT29 colon it was greater than 100 µM. Also, the TGI in the test with MOLT-4 leukemia, in the test with EKVX NSCLC, with OVCAR-8 ovarian, in the test on CAKI-1 renal, in the test on SF-268 CNS and with SW-620 colon was greater than 100 µM throughout. Further, the TGI in the test with NCI/ADR-RES ovarian is 76.3 µM; in the test on HL-60(TB) leukemia, greater than 100 µM; in the test on MDA-MB-435, greater than 100 µM; in the test on COLO 205 colon it was greater than 100 µM; in the test on TK-10 renal, greater than 100 µM; with U251 CNS it was greater than 100 µM. Also, the TGI in the test with LOX IMVI melanoma and in the test with K-562 leukemia was greater than 100 µM throughout.

As for `CO[C@]1(c2ccc([N+](=O)[O-])cc2)Oc2ccccc2C(=O)[C@@]1(Nc1ccc(C=O)cc1)OC`, the TGI with RPMI-8226 leukemia, in the test with HS 578T breast, in the test with SF-539 CNS, in the test with HCC-2998 colon, with SR leukemia and in the test with HT29 colon was greater than 10 µM in each case. Also, the TGI in the test on MOLT-4 leukemia, in the test on EKVX NSCLC, in the test on OVCAR-8 ovarian, in the test on CAKI-1 renal, with SF-268 CNS and in the test on SW-620 colon was greater than 10 µM throughout. For the same molecule, the TGI with NCI/ADR-RES ovarian, in the test on HL-60(TB) leukemia, in the test with MDA-MB-435, with COLO 205 colon, with TK-10 renal and in the test with U251 CNS was greater than 10 µM in each case. Moreover, the TGI in the test on LOX IMVI melanoma and in the test with K-562 leukemia was greater than 10 µM each time.

As to `O=C(Nc1ccccc1)OCCN=C1c2ccccc2C(Br)C(Br)c2ccccc21` (stereo not given), the TGI in the test with RPMI-8226 leukemia was determined as 19.9 µM; with HS 578T breast it was 22 µM; in the test on SF-539 CNS it was 7.2 µM; in the test on HCC-2998 colon it was 20.8 µM; with SR leukemia, 7.08 µM; in the test on HT29 colon it was 14.6 µM. Moreover, the TGI stood at 5.06 µM with MOLT-4 leukemia; 19.8 µM in the test with EKVX NSCLC; 13 µM with OVCAR-8 ovarian; 16.2 µM in the test on CAKI-1 renal; 15.6 µM with SF-268 CNS; 16.3 µM in the test on SW-620 colon. Moreover, the TGI was determined as 19.4 µM in the test on NCI/ADR-RES ovarian; 3.85 µM in the test with HL-60(TB) leukemia; 17.1 µM in the test on MDA-MB-435; 13 µM in the test with COLO 205 colon; 18.5 µM with TK-10 renal; 16.5 µM with U251 CNS. The TGI in the test with LOX IMVI melanoma was determined as 13.4 µM; with K-562 leukemia, 7.03 µM.

As for `C/C(=C\CO)CC/C=C(\C)CNc1c(F)c(F)c(F)c(F)c1F`, the TGI was found to be 43.8 µM with RPMI-8226 leukemia; 74.6 µM in the test with HS 578T breast; 40.3 µM in the test with SF-539 CNS; 59.8 µM in the test on HCC-2998 colon; 74.9 µM in the test on SR leukemia; 52.3 µM in the test with HT29 colon. For the same molecule, the TGI in the test on MOLT-4 leukemia was greater than 100 µM; in the test with EKVX NSCLC, 98.3 µM; in the test on OVCAR-8 ovarian, 38 µM; in the test on CAKI-1 renal, greater than 100 µM; in the test on SF-268 CNS, 67.3 µM; in the test with SW-620 colon it was greater than 100 µM. Besides, the TGI in the test on NCI/ADR-RES ovarian was 86.2 µM; in the test with HL-60(TB) leukemia it was 65.8 µM; in the test with MDA-MB-435, 53.8 µM; in the test on COLO 205 colon, 67.1 µM; with TK-10 renal, 85.7 µM; in the test on U251 CNS it was 59.2 µM. Moreover, the TGI turned out to be 80.8 µM in the test on LOX IMVI melanoma and 92 µM with K-562 leukemia.

Turning to `Cn1c(=O)c2c3ccccc3n(C)c2n(C)c1=O`, the TGI in the test on RPMI-8226 leukemia, with HS 578T breast, in the test on SF-539 CNS, with HCC-2998 colon, with SR leukemia and with HT29 colon was greater than 100 µM in each case. Besides, the TGI in the test on MOLT-4 leukemia, in the test on EKVX NSCLC, with OVCAR-8 ovarian, with CAKI-1 renal, in the test on SF-268 CNS and in the test with SW-620 colon was greater than 100 µM throughout. The TGI in the test with NCI/ADR-RES ovarian, in the test with HL-60(TB) leukemia, in the test with MDA-MB-435, in the test with COLO 205 colon, with TK-10 renal and in the test with U251 CNS was greater than 100 µM each time. For the same molecule, the TGI in the test on LOX IMVI melanoma and in the test with K-562 leukemia was greater than 100 µM in each case.

As for `C=Cc1nc2c(Cl)ncnc2n1Cc1ccccc1`, the TGI with RPMI-8226 leukemia is 18.3 µM; with HS 578T breast it was 50.4 µM; with SF-539 CNS, 8.77 µM; in the test on HCC-2998 colon, 6.76 µM; in the test on SR leukemia, greater than 33.4 µM; with HT29 colon, 7.28 µM. Besides, the TGI is greater than 28.4 µM in the test with MOLT-4 leukemia; 10.3 µM with EKVX NSCLC; 12 µM with OVCAR-8 ovarian; 3.99 µM with CAKI-1 renal; 22.9 µM with SF-268 CNS; 23.2 µM in the test on SW-620 colon. Besides, the TGI in the test with NCI/ADR-RES ovarian was found to be 23.1 µM; in the test with HL-60(TB) leukemia, 9.17 µM; in the test on MDA-MB-435, 10.1 µM; in the test with COLO 205 colon it was 3.08 µM; with TK-10 renal, 7.72 µM; in the test on U251 CNS, 22.6 µM. Also, the TGI in the test on LOX IMVI melanoma was 8.44 µM; in the test on K-562 leukemia, greater than 40.1 µM.

As to `CC1=C(C(=O)OCCO[N+](=O)[O-])C(c2cccc([N+](=O)[O-])c2)C(C(=O)OC(C)C)=C(C)N1` (stereo not given), the TGI with RPMI-8226 leukemia is greater than 100 µM; in the test on HS 578T breast it was 33.2 µM; with SF-539 CNS, 30.5 µM; in the test with HCC-2998 colon it was 29.6 µM; with SR leukemia, greater than 100 µM; in the test with HT29 colon, 29.2 µM. For the same molecule, the TGI with MOLT-4 leukemia is greater than 100 µM; in the test with EKVX NSCLC it was 48.9 µM; with OVCAR-8 ovarian it was 54.2 µM; in the test on CAKI-1 renal, 95.7 µM; in the test with SF-268 CNS, 33 µM; in the test on SW-620 colon it was 51.1 µM. The TGI in the test on NCI/ADR-RES ovarian is 34.3 µM; with HL-60(TB) leukemia, greater than 100 µM; with MDA-MB-435, 30.9 µM; in the test on COLO 205 colon, 24.4 µM; with TK-10 renal, 42.9 µM; with U251 CNS it was 28.7 µM. The TGI in the test with LOX IMVI melanoma is 31.6 µM; in the test with K-562 leukemia, greater than 100 µM.

`O=C1C=Cc2c(Br)sc(Br)c21`: the TGI in the test on RPMI-8226 leukemia was 46.3 µM; in the test with HS 578T breast, greater than 100 µM; in the test with SF-539 CNS it was greater than 100 µM; in the test on HCC-2998 colon, 29.2 µM; in the test on SR leukemia it was 75.2 µM; in the test with HT29 colon, 85.9 µM. The TGI with MOLT-4 leukemia was 36.8 µM; in the test on EKVX NSCLC it was 81 µM; with OVCAR-8 ovarian, greater than 100 µM; with CAKI-1 renal, 41.1 µM; in the test with SF-268 CNS, greater than 100 µM; in the test on SW-620 colon, 43.7 µM. The TGI is greater than 100 µM in the test with NCI/ADR-RES ovarian; 58.7 µM with HL-60(TB) leukemia; 46.1 µM in the test with MDA-MB-435; greater than 100 µM with COLO 205 colon; 31.7 µM in the test with TK-10 renal; 38.2 µM in the test with U251 CNS. Moreover, the results for the TGI in the test on LOX IMVI melanoma and in the test with K-562 leukemia were 48.4 µM and 54.5 µM, respectively.

As to `O=c1ccn([C@@H]2C[C@H]2CO)c(=O)[nH]1`, the TGI with RPMI-8226 leukemia, with HS 578T breast, with SF-539 CNS, in the test on HCC-2998 colon, in the test with SR leukemia and in the test with HT29 colon was greater than 100 µM throughout. Also, the TGI with MOLT-4 leukemia, with EKVX NSCLC, in the test with OVCAR-8 ovarian, with CAKI-1 renal, with SF-268 CNS and in the test on SW-620 colon was greater than 100 µM throughout. Further, the TGI in the test with NCI/ADR-RES ovarian, in the test on HL-60(TB) leukemia, with MDA-MB-435, with COLO 205 colon, in the test on TK-10 renal and with U251 CNS was greater than 100 µM in each case. For the same molecule, the TGI with LOX IMVI melanoma and in the test with K-562 leukemia was greater than 100 µM each time.

For `CC(C)=C1C(=O)C[C@]2(C)C[C@H]3O[C@]3(C)CC[C@@H]3O[C@@]3(C)CC[C@@H]12`, the TGI in the test on RPMI-8226 leukemia, with HS 578T breast, in the test on SF-539 CNS, in the test with HCC-2998 colon, with SR leukemia and in the test with HT29 colon was greater than 50 µM throughout. Further, the TGI with MOLT-4 leukemia, in the test with EKVX NSCLC, in the test on OVCAR-8 ovarian, with CAKI-1 renal, in the test with SF-268 CNS and in the test on SW-620 colon was greater than 50 µM in each case. The TGI with NCI/ADR-RES ovarian, in the test on HL-60(TB) leukemia, in the test with MDA-MB-435, in the test with COLO 205 colon, in the test with TK-10 renal and with U251 CNS was greater than 50 µM each time. Further, the TGI in the test on LOX IMVI melanoma and in the test on K-562 leukemia was greater than 50 µM each time.
